“And” between values parts separate entries of the source, which are not always exact repeats. Identical values can stand only once. Like-named read-outs stand apart in the source and are kept apart here.
Columns and labels:
[1] = target: T1, α1β2γ2 GABAA receptor (Mus musculus, UniProt P62812+P63137); assay: Schild analysis of competitive antagonism in HEK cells
[2] = target: T1, α1β2γ2 GABAA receptor; settings: for irreversible reduction/block of GABA current post-UV: one cycle of UV
[3] = target: T1, α1β2γ2 GABAA receptor; assay: cell-based; settings: HEK293, read-out: maximum GABA current after UV in the presence of GZ-B1, % of control
[4] = target: T2, α1R119Qβ2γ2 GABAA receptor (Mus musculus, UniProt P62812+P63137, R146Q); assay: cell-based; settings: HEK293, read-out: maximum GABA current after UV in the presence of GZ-B1, % of control
[5] = target: α1β2D162+163Nγ2 GABAA receptor (Mus musculus, UniProt P62812+P63137, D186N/D187N); assay: cell-based
[6] = target: T3, α1β2γ2 (wt) GABAA receptor (Mus musculus, UniProt P62812+P63137); settings: for Max inhibition: inhibition of GABA EC50 response, wt
[7] = target: T4, α1R84Qβ2γ2 GABAA receptor (Mus musculus, UniProt P62812+P63137, R111Q); assay: cell-based
[8] = target: T5, α1R119Qβ2E155Q+R207Qγ2 GABAA receptor (Mus musculus, UniProt P62812+P63137, E179Q/R146Q/R231Q); assay: cell-based
[9] = target: T6, α3β3γ2 GABAA receptor (Mus musculus, UniProt P26049+P63080); assay: GZ-B1 inhibition of GABA EC50 responses, receptor subtype selectivity in HEK cells; format: cell-based, murine; settings: α3β3γ2, GABA EC50 response, ANOVA Dunnett
T6 construct: expressed in transfected cells; host or cells: HEK cells
Source text: (§1) […]; pH 7.4 (adjusted with 1 M NaOH).

[10] = target: T7, α4β3δ GABAA receptor (Mus musculus, UniProt P63080+Q9D6F4); assay: as above; format: cell-based, murine; settings: GABA EC50 response, ANOVA Dunnett
T7 construct: expressed in transfected cells; host or cells: HEK cells
Source text: as §1

[11] = target: T8, α1R119Qβ2R207Qγ2 GABAA receptor (Mus musculus, UniProt P62812+P63137, R146Q/R231Q)
[12] = target: T9, α1β2R207Qγ2 GABAA receptor (Mus musculus, UniProt P62812+P63137, R231Q); assay: cell-based
[13] = target: T9, α1β2R207Qγ2 GABAA receptor
[14] = target: T5, α1R119Qβ2E155Q+R207Qγ2 GABAA receptor
[15] = target: α1R119Qβ2E155Qγ2 GABAA receptor (Mus musculus, UniProt P62812+P63137, E179Q/R146Q); assay: cell-based
[16] = target: T10, α1β2E155Q+R207Qγ2 GABAA receptor (Mus musculus, UniProt P62812+P63137, E179Q/R231Q); assay: cell-based
[17] = target: T4, α1R84Qβ2γ2 GABAA receptor
[18] = target: T10, α1β2E155Q+R207Qγ2 GABAA receptor
[19] = target: T4, α1R84Qβ2γ2 GABAA receptor; assay: cell-based; settings: HEK293, read-out: maximum GABA current after UV in the presence of GZ-B1, % of control
[20] = target: T11, α1R84Qβ2R207Qγ2 GABAA receptor (Mus musculus, UniProt P62812+P63137, R111Q/R231Q); assay: cell-based
[21] = target: T12, α1R84+119Qβ2D162+163Nγ2 GABAA receptor (Mus musculus, UniProt P62812+P63137, D186N/D187N/R111Q/R146Q); assay: cell-based
[22] = target: T11, α1R84Qβ2R207Qγ2 GABAA receptor; settings: α1R84Qβ2R207Qγ2 double mutant
[23] = target: T2, α1R119Qβ2γ2 GABAA receptor; settings: for Max inhibition: α1R119Qβ2γ2; for potency increase compared with wild type: α1R119Qβ2γ2 vs wild type
[24] = target: α1β2D162N,D163Nγ2 GABAA receptor (Mus musculus, UniProt P62812+P63137, D186N/D187N); assay: cell-based; settings: HEK293, read-out: maximum GABA current after UV in the presence of GZ-B1, % of control
[25] = target: T2, α1R119Qβ2γ2 GABAA receptor; assay: cell-based
[26] = target: T8, α1R119Qβ2R207Qγ2 GABAA receptor; assay: cell-based
[27] = target: T3, α1β2γ2 (wt) GABAA receptor; assay: cell-based
[28] = target: α1β2E155Qγ2 GABAA receptor (Mus musculus, UniProt P62812+P63137, E179Q); assay: cell-based
[29] = test system: synaptic GABAA receptors of cerebellar granule cells; assay: sIPSCs in cultured cerebellar granule cells after UV photoactivation; settings: 10 μM GZ-B1, one UV cycle
[30] = target: T12, α1R84+119Qβ2D162+163Nγ2 GABAA receptor; assay: cell-based; settings: HEK293, read-out: maximum GABA current after UV in the presence of GZ-B1, % of control
[31] = target: T3, α1β2γ2 (wt) GABAA receptor; design: expressed in transfected cells; host or cells: HEK cells; settings: α1β2γ2, GABA EC50 response; cited from earlier work
[32] = IC50, inhibition of GABA EC50 response, α1β2R207Qγ2
[33] = 10 μM GABA, 10 μM antagonist, one cycle of 10 UV flashes, 3–5 min wash
[34] = IC50, inhibition of GABA EC50 response, α1R119Qβ2γ2
[35] = IC50, α1R119Qβ2γ2, as printed in text

Row | SMILES | Kb [1] [nM] | irreversible reduction/block of GABA current post-UV ([2]; 10 μM antagonist) | Max inhibition [6] [%] | IC50 [8] [nM] | Max inhibition [11] [%] | IC50 [12, 32] [nM] | Max inhibition [13] [%] | Max inhibition [14] [%] | IC50 [15] [nM] | IC50 [16] [nM] | Max inhibition [18] [%] | Max inhibition [23] [%] | potency increase compared with wild type [23] | GABA-induced current post-UV, normalized to control [2, 33] [%] | IC50 [25, 34] [nM] | IC50 [25, 35] [nM] | IC50 [26] [nM] | IC50 [27] [nM] | IC50 [28] [nM] | also measured
1 | [N-]=[N+]=Nc1ccc(COc2ccc(-c3ccc(=N)n(CCCC(=O)O)n3)cc2)cc1 [GZ-A1] | 44 | ~ 30% |  |  |  |  |  |  |  |  |  |  |  |  |  |  |  |  |  | GABA-induced current post-UV, normalized to control [2]: 71.3±6.8%
2 | N=c1ccc(-c2ccc(OCc3ccc(C(=O)c4ccccc4)cc3)cc2)nn1CCCC(=O)O [GZ-B1] | 153 | ~ 50% | 100 | 426 | 75 ± 2 | 487 | 83 ± 3 | 72 ± 4 | > 100000 | 470 | 100 | 100 | ~ 2 fold | 50.8±1.8 | 71.5 | 72 | 418 | 155 | > 100000 | remaining activity at 10 µM [3]: 62 ± 4.2%; remaining activity at 10 µM [4]: 73 ± 2.6%; IC50 [5]: 13500 nM; IC50 ([7]; IC50, inhibition of GABA EC50 response): 4220 nM; IC50 ([7]; pIC50, inhibition of GABA EC50 response): 4230 nM; GZ-B1 potency (IC50) compared with α1β3γ2 [9]: significantly lower potencies; GZ-B1 potency (IC50) compared with α1β3γ2 [10]: significantly lower potencies; IC50 ([12]; IC50, α1β2R207Qγ2, as printed in text): 487 nM; Max inhibition [17]: 100%; remaining activity at 100 µM [19]: 84 ± 4.9%; IC50 [20]: 182000 nM; IC50 [21]: 258000 nM; reduction (loss) of GZ-B1 potency [22]: 1,000 fold and > 1,000 fold; remaining activity at 100 µM [24]: 71 ± 2.6%; reduction in synaptic current (sIPSC) amplitude [29]: ≤ 90%; remaining activity at 100 µM [30]: 97 ± 3.4%
3 | N=c1ccc(-c2ccc(C(=O)c3ccccc3)cc2)nn1CCCC(=O)O [GZ-B2] | 318 |  |  |  |  |  |  |  |  |  |  |  |  | 98.3±4.2 |  |  |  |  |  | relative potency compared with gabazine ([6]; α1β2γ2, GABA EC50 response): equipotent
4 | N=c1ccc(-c2ccc(OCc3ccc(C4(C(F)(F)F)N=N4)cc3)cc2)nn1CCCC(=O)O [GZ-D1] | 132 | ~ 20% |  |  |  |  |  |  |  |  |  |  |  | 79.0±4.5 |  |  |  |  |  | 
5 | N=c1ccc(-c2ccc(OCc3ccccc3)cc2)nn1CCCC(=O)O [GZ-i1] | 13 |  |  |  |  |  |  |  |  |  |  |  |  |  |  |  |  |  |  | increase in affinity (Ki) over gabazine ([1]; Schild analysis): 20 fold; increase in potency over gabazine [31]: more than 30 fold
6 | COc1ccc(-c2ccc(=N)n(CCCC(=O)O)n2)cc1 [gabazine, reference compound] | 300 |  | 100 | 2260 | 100 | 1710 | 100 | 94 ± 1 | > 100000 | 1380 | 100 | 100 | ~ 2 fold | 101.6±3.3 | 188 | 188 | 3750 | 349 | > 100000 | 

Reference: article PMC4124873, “Photo-antagonism of the GABAA receptor” (Nature Communications, 2014)
